# Laboratory results as given in publication PMC11207111, “Assessment of the Activity of Nitroisoxazole Derivatives against Trypanosoma cruzi” (Molecules, 2024).
# Columns and labels:
# [1] = tested on: Vero mammalian cells; experiment: Cytotoxicity (MTT) on Vero cells; type: cell-based; settings: Chlorocebus sabaeus, 24 h
# Method: Additionally, the cytotoxicity of the compounds on VERO mammalian cells was assessed (Table 4). […] It is observed that the majority of the derivatives present considerable cytotoxicity. […] RPMI 1640 medium) for 24 h. […] The effects of the compounds on trypomastigote and Vero cell viability were evaluated by tetrazolium salt reduction assay (MTT). […] The plates were kept overnight at 37 °C (28 °C for epimastigotes), and the optical density (OD) was determined using a 96-well microplate reader (Vantaa, Finland) at 570 nm. Under these conditions, the OD is directly proportional to each well’s viable number of cells. The experiments were performed in triplicate across three different assays.
# [2] = tested on: trypomastigote of T. cruzi Dm28; experiment: Trypanocidal activity (MTT) on trypomastigotes; type: cell-based; settings: Trypanosoma cruzi; for killing at 100 µM: 24 h, n.a = not active, read-out: % T. cruzi Trypomastigote (trypanocidal effect); for IC50: T. cruzi Dm28, 24 h
# Method: As a preliminary step, a study of nitroisoxazole derivatives on the epimastigote form of T. cruzi was performed. Despite the epimastigote form not being a clinical form present in mammals, its easy handling has allowed screening for the trypanocidal activity of various compounds. It is worth noting that, during the intracellular life cycle of the parasite, a form similar to the epimastigote, which is biochemically and morphologically identical to the form present in the vector, has been described. […] This is consistent with studies by Fonseca-Berzal et al. […] Additionally, compounds with higher activity have aromatic rings as substituents for nitroisoxazoles, confirming what was described Do […] [40]. […] It has also been determined that the presence of an isoxazole is essential for activity, as its aromatic structure contains a weak nitrogen-oxygen bond that, under different reaction conditions, can undergo ring cleavage, increasing activity. The results obtained on epimastigotes cannot be conclusive for determining potential Chagas agents, so conducting studies on the infective, extracellular, non-replicative trypomastigote form of T. cruzi present in humans is essential. […] RPMI 1640 medium) for 24 h. […] The effects of the compounds on trypomastigote and Vero cell viability were evaluated by tetrazolium salt reduction assay (MTT). […] The plates were kept overnight at 37 °C (28 °C for epimastigotes), and the optical density (OD) was determined using a 96-well microplate reader (Vantaa, Finland) at 570 nm. Under these conditions, the OD is directly proportional to each well's viable number of cells. The experiments were performed in triplicate across three different assays.
# [3] = tested on: epimastigote of T. cruzi Dm28; experiment: Trypanocidal activity (MTT) on epimastigotes; type: cell-based; settings: Trypanosoma cruzi; for killing at 100 µM: 24 h, n.a = not active, read-out: % T. cruzi Epimastigote (trypanocidal effect); for IC50: T. cruzi Dm28, 24 h, read-out: IC50 T. cruzi E (epimastigote)
# Method: As a preliminary step, a study of nitroisoxazole derivatives on the epimastigote form of T. cruzi was performed. Despite the epimastigote form not being a clinical form present in mammals, its easy handling has allowed screening for the trypanocidal activity of various compounds. It is worth noting that, during the intracellular life cycle of the parasite, a form similar to the epimastigote, which is biochemically and morphologically identical to the form present in the vector, has been described. […] RPMI 1640 medium) for 24 h. […] The effects of the compounds on trypomastigote and Vero cell viability were evaluated by tetrazolium salt reduction assay (MTT). […] The plates were kept overnight at 37 °C (28 °C for epimastigotes), and the optical density (OD) was determined using a 96-well microplate reader (Vantaa, Finland) at 570 nm. Under these conditions, the OD is directly proportional to each well’s viable number of cells. The experiments were performed in triplicate across three different assays.
# [4] = Cyclic voltammetry (reduction of the nitro group); type: physicochemical; design: key to −EpcI / −EpcII / −EpaII / −EpaI: potentials in V vs Ag/AgCl; |ΔEp|: unit not given here
# Text: The chemistry mechanism of reduction in nitroisoxazole derivatives was investigated using cyclic voltammetry.
# The peak near −1.32 V corresponds to a quasi-reversible one-electron transfer, according to the criteria of Nicholson–Shain [26] (Table 1), attributable to the species −NO2/NO2.− . The latter species stable anion radical at room temperature. […] An irreversible peak at −0.93 V to the mono-electronic transfer −HNO2/HNO2.− is observed, coupled with a chemical reaction associated with […] of the formed radical. This was evidenced by the addition of NaOH (1 M), which caused a decrease in the Ic peak (Figure 2c).
# As previously described, an irreversible signal assigned to hydroxylamine oxidation to a nitroso derivative is also observed for N-acylhydrazones organometallic compounds with a pendant 5-nitrofuryl group. […] Compound 7, which has the least negative reduction potential, can be attributed to introducing a nitro group in the para position of the nitroisoxazole ring. This effect can also be observed in derivatives containing halogens in the same position.
# Electrochemical characterization of the new compounds was performed through cyclic voltammetry (CV) on a 693 VA Metrohm instrument (Tokyo, Japan) equipped with a 694 VA Stand converter and 693 VA processor. Potentials were recorded against the Ag/AgCl reference electrode; a hanging drop of mercury (HDME) was used as a working electrode, and platinum was used as an auxiliary electrode. Tetrabutylammonium perchlorate (TBAP, 0.1 M) in DMSO was used as a supporting electrolyte under an N2 atmosphere at room temperature. Using Nicholson´s procedure, the Ipa/Ipc values (RNO2/RNO2^−) were measured from each cyclic voltammogram with a scan rate between 0.1 and 2.5 V/s.
# [5] = ORAC-FL antioxidant capacity; settings: relative to Trolox; phosphate buffer 75 mM, pH 7.4, 37 °C
# Method: To corroborate the generation of the nitro radical, the antioxidant capacity of the series under study was determined by ORAC-FL methodology, employing a fluorescent probe to capture oxygen-centered radicals (Table 2). The ORAC-FL values of the studied compounds are close to the reference value of Trolox, indicating a low antioxidant capacity. For compounds (1-3), the presence of amino substituents decreases antioxidant activity due to their […] characteristics, preventing the presence of labile hydrogens. […] Compounds 4 and 10 present similar ORAC indexes as aromatic rings with high electron density insert the transfer of labile protons. Antioxidant capacity was determined using the ORAC-fluorescence methodology (ORAC-FL). The analysis used a 96-well white polystyrene plate reader (EnSpire multimode PerkinElmer, Waltham, MA, USA). The reaction was carried out in phosphate buffer (75 mM, pH 7.4). […] A blank with FL and AAPH, using dimethyl sulfoxide instead of the antioxidant solution, was used in each assay. […] The inhibitor capacity was expressed as ORAC-FL values and quantified by integrating the area under the curve (AUCNET). All reaction mixtures were prepared in triplicate, and at least three independent assays were performed for each sample. The area under the fluorescence decay curve (AUC) was calculated by integrating the fluorescence decay where F0 is the initial fluorescence read at 0 min, and F is the fluorescence read at the time. The AUCNET corresponding to the sample was calculated by subtracting the AUC corresponding to the blank. Data were processed using Origin […].5 SR2 (San Francisco, CA, USA). The ORAC-FL indices were calculated according to the following Equation (1): (1) ORAC-[…]]
# [6] = tested on: T. cruzi trypomastigotes; experiment: Generation of ROS (DCFH2-DA fluorescent probe); type: cell-based, Trypanosoma cruzi; settings: 100 µM; for ROS generation (DCF fluorescence intensity): 40 min, vs control without compound
# Method: To generate radical species on T. cruzi trypomastigotes, intracellular free radicals were determined using the fluorescent probe dichlorofluorescein (DCF).
# The cultures were incubated with a 20 µM DCFH2-DA solution for 15 min at 28 °C. Then, they were centrifuged at 3500 rpm and washed 2 times with phosphate buffer saline (PBS) pH 7.4. Cells loaded with DCFH2-DA were transferred to a Nunc® fluorescence 96-well plate (Thermo Fisher Scientific Inc., Waltham, MA, USA), where the nitroisoxazoles derivates were added at 100 µM. Fluorescence (exi: 488 nm, emi: 528 nm) was recorded for 40 min in a BioTek (Winooski, VT, USA) Synergy HT spectrofluorometer. The area under increase curves over time was determined using Oring 8 software, with areas normalized to control. Results are the means ± SD of three independent experiments.
# [7] = cyclic voltammetry at 2.0 V/s, DMSO, 0.1 M TBAP, vs Ag/AgCl
Structure (SMILES),IC50 [1] [µM],killing at 100 µM [2] [%],IC50 [2] [µM],killing at 100 µM [3] [%],IC50 [3] [µM],Ipa/Ipc ([4]; cyclic voltammetry at 2.0 V/s),|ΔEp| ([4]; cyclic voltammetry at 2.0 V/s),"−EpaII [4, 7]","−EpcII [4, 7]",melting point,ORAC-FL Index [5],ROS generation (DCF fluorescence intensity) [6],ROS generation compared with Nfx ([6]; Figure 3),"−EpcI [4, 7]","irreversible peak potential, mono-electronic transfer −HNO2/HNO2.− ([4]; cyclic voltammogram, Figure 2b) [V]","−EpaI [4, 7]","IIIc couple potential (formation of a hydroxylamine derivative) ([4]; cyclic voltammogram, Figure 2d) [V]"
"Cc1noc(/C=C/c2ccc(F)cc2)c1[N+](=O)[O-] [Compound 5, (E)-5-(4-Fluorostyryl)-3-methyl-4-nitroisoxazole]",> 400,19 ± 3,> 400,47 ± 1,400 ± 3,−0.02,110,0.71,0.82,169 to 171 °C,0.74 ± 0.05,increase in fluorescence intensity,more reactive oxygen species (ROS) than Nfx,–,–,–,–
"Cc1noc(/C=C/c2cn(-c3ccccc3)c3ccccc23)c1[N+](=O)[O-] [Compound 12, (E)-3-Methyl-4-nitro-5-(2-(1-phenyl-1H-indol-3-yl)vinyl)isoxazole]",141 ± 6,16 ± 2,> 400,5 ± 2,> 400,−0.36,90,0.87,0.96,196 to 199 °C,0.4 ± 0.1,did not show ROS generation,–,–,–,–,–
"Cc1noc(/C=C/c2ccc(O)c(O)c2)c1[N+](=O)[O-] [Compound 8, (E)-4-(2-(3-Methyl-4-nitroisoxazol-5-yl)vinyl)benzene-1,2-diol]",398.1 ± 0.3,16 ± 2,> 400,32 ± 5,> 400,−0.34,150,1.02,1.17,270 °C (dec.),1.0 ± 0.1,did not show ROS generation,–,0.93,−0.93,–,–
"Cc1noc(/C=C/c2cccc(Br)c2)c1[N+](=O)[O-] [Compound 16, (E)-5-(3-Bromostyryl)-3-methyl-4-nitroisoxazole]",141 ± 4,22 ± 6,> 400,19 ± 3,> 400,–,–,–,1.41,174 to 177 °C,0.54 ± 0.07,did not show ROS generation,–,0.78,–,–,–
"Cc1noc(/C=C/c2cn(-c3ccc(Cl)cc3)c3ccccc23)c1[N+](=O)[O-] [Compound 13, (E)-5-(2-(1-(4-Chlorophenyl)-1H-indol-3-yl)vinyl)-3-methyl-4-nitroisoxazole]",102 ± 6,14 ± 3,> 400,–,> 400,−0.41,90,0.90,0.99,217 to 220 °C,0.4 ± 0.1,did not show ROS generation,–,0.75,–,–,–
"COc1cc(/C=C/c2onc(C)c2[N+](=O)[O-])ccc1O [Compound 9, (E)-2-Methoxy-4-(2-(3-methyl-4-nitroisoxazol-5-yl)vinyl)phenol]",244.5 ± 0.5,15 ± 3,400 ± 2,52 ± 4,166 ± 4,−0.17,160,1.07,0.91,189 to 191 °C,0.7 ± 0.2,did not show ROS generation,–,0.66,–,0.82,−1.14
"Cc1noc(/C=C/N2CCCCC2)c1[N+](=O)[O-] [Compound 3, (E)-3-Methyl-4-nitro-5-(2-(piperidin-1-yl)vinyl)isoxazole]",> 400,20 ± 2,> 400,17 ± 5,> 400,−0.19,100,1.19,1.29,151 to 153 °C,0.52 ± 0.05,increase in fluorescence intensity,–,–,–,–,–
"CCN(CC)c1ccc2cc(/C=C/c3onc(C)c3[N+](=O)[O-])c(=O)oc2c1 [Compound 11, (E)-7-(Diethylamino)-3-(2-(3-methyl-4-nitroisoxazol-5-yl)vinyl)-2H-chromen-2-one]",125.9 ± 0.1,10 ± 4,400 ± 5,–,> 400,–,–,–,1.21,224 to 226 °C,0.21 ± 0.01,increase in fluorescence intensity,–,0.79,–,–,–
